From patent publication US8343475B2, “Small cationic antimicrobial peptides” (priority 2006, dated 2013)
No end group written: not given here.

Legend:
Assay in all cases: Chemokine induction in PBMC (capture ELISA)
Assay type in all cases: cell-based
[1] = tested on: MCP-1 release by human PBMC; conditions: background (204) subtracted
Experimental: FIG. 15. Induction of MCP-1 release by 7.5×10^5 human PBMC in response to treatment with 20 or 100 μg/ml of different peptides for 24 hours.
(§1) Venous blood (20 ml) from healthy volunteers was collected in Vacutainer® collection tubes containing sodium heparin as an anticoagulant (Becton Dickinson, Mississauga, ON) in accordance with UBC ethical approval and guidelines. Blood was diluted 1:1 with complete RPMI 1640 medium and separated by centrifugation over a Ficoll-Paque® Plus (Amersham Biosciences, Piscataway, N.J., USA) density gradient. White blood cells were isolated from the buffy coat, washed twice in RPMI 1640 complete medium, and the number of peripheral blood mononuclear cells (PBMC) was determined by trypan blue exclusion. PBMC (5×10^5) were seeded into 12-well tissue culture dishes (Falcon; Becton Dickinson) at 0.75 to 1×10^6 cells/ml at 37° C. in 5% CO2. The above conditions were chosen to mimic conditions for circulating blood monocytes entering tissues at the site of infection via extravasation.
(§2) Following incubation of the cells under various treatment regimens, the tissue culture supernatants were centrifuged at 1000×g for 5 min, then at 10,000×g for 2 min to obtain cell-free samples. Supernatants were aliquoted and then stored at −20° C. prior to assay for various chemokines by capture ELISA (eBioscience and BioSource International Inc., CA, USA respectively)

[2] = tested on: MCP-3 release by human PBMC; conditions: background (6) subtracted
Experimental: FIG. 16. Induction of MCP3 release by 7.5×10^5 human PBMC in response to treatment with 20 or 100 μg/ml of different peptides for 24 hours.
as §1, §2

[3] = tested on: CXCL1 (Gro-α) release by human PBMC; conditions: background (196) subtracted
Experimental: FIG. 17. Induction of CXCL1 (Gro-α) release by 7.5×10^5 human PBMC in response to treatment with 20 or 100 μg/ml of different peptides for 24 hours.
as §1, §2

Substance | Chemokine induction MCP-1 ([1]; 20 μg/ml peptide) [pg/mL] | Chemokine induction MCP-1 ([1]; 100 μg/ml peptide) [pg/mL] | Chemokine induction MCP-3 ([2]; 20 μg/ml peptide) [pg/mL] | Chemokine induction MCP-3 ([2]; 100 μg/ml peptide) [pg/mL] | Chemokine induction Gro-α ([3]; 20 μg/ml peptide) [pg/mL] | Chemokine induction Gro-α ([3]; 100 μg/ml peptide) [pg/mL]
1008 (RIKWIVRFR) [compound 1008] | 633 | 1775 | 1 | 22 | 109 | 869
1021 (VRLRIRVAV) [compound 1021] | 158 | 276 | 3 | 10 | 29 | 112
1046 (WIRVIRW) [compound 1046] | 46 | 449 | 1 | 4 | 38 | 147
1014 (RQVIVRRW) [compound 1014] | 83 | 175 | 0 | 1 | 6 | 15
1019 (IVVWRRQLVKNK) [compound 1019] | 27 | 438 | 0 | 0 | 5 | 43
LVRAIQVRAVIR (LVRAIQVRAVIR-NH2) [compound 1001] | 516 | 2491 | 0 | 40 | 88 | 850
1011 (RRWVVWRIVQRR) [compound 1011] | 579 | 2282 | 1 | 35 | 46 | 308
1036 (VQFRIRVIVIRK) [compound 1036] | 601 | 968 | 1 | 39 | 51 | 137
1009 (AIRVVRARLVRR) [compound 1009] | 634 | 1093 | 6 | 6 | 230 | 377
1047 (IIRRWWV) [compound 1047] | 8 | 130 | 0 | 0 | -1 | -3
1023 (IRVWVLRQR) [compound 1023] | 250 | 712 | 0 | 1 | 36 | 38
1045 (RWWRIVI) [compound 1045] | -2 | 989 | 0 | 31 | 13 | 435
1039 (IWVIRRVWR) [compound 1039] | 603 | 2420 | 13 | 67 | 469 | 1717
1022 (LRIRVIVWR) [compound 1022] | 52 | 983 | 0 | 1 | 10 | 64
1007 (WNRVKWIRR) [compound 1007] | 103 | 247 | 7 | 28 | 65 | 170
